Assay results: US20250353891A1 (MEDIMMUNE LIMITED, priority 2022, published 2025)
Where two headings read alike, the source gives them in different places. Starred links: 1 amine or outer side, 2 acyl side, 3 side chain; linkers in the order of their positions; H or OH if unused. Non-standard residues stand in square brackets, D forms with d. Residues, ends and D or L forms follow the SMILES beside them. Groups on a side chain read outwards from the residue. *: point of attachment. C18 diacid = O=C(O)CCCCCCCCCCCCCCCCC(=O)*; Dip = N[C@H](C(=O)O)C(c1ccccc1)c1ccccc1; γGlu = O=C(O)[C@H](CCC(=O)[*:2])N[*:1]; Stearoyl = CCCCCCCCCCCCCCCCCC(=O)*; Palmitoyl = CCCCCCCCCCCCCCCC(=O)*; αMeF = C[C@](N)(Cc1ccccc1)C(=O)O; PEG4 = NCCOCCOCCOCCOCCC(=O)O; Nle = CCCC[C@H](N)C(=O)O; PEG2 = NCCOCCOCCC(=O)O; AEEA = NCCOCCOCC(=O)O; Aib = CC(C)(N)C(=O)O

What was measured:
[1] = target: human GLP-1 receptor (hGLP-1R) (Homo sapiens, UniProt P43220); test: cAMP production (HTRF) in CHO cells expressing hGLP-1R; type: cell-based; design: expressed in transfected cells; conditions: for EC50: cAMP in CHO hGLP-1R cells, geometric mean, read-out: hGLP-1R EC50; for % Relative Potency Ratio: % GLP-1R activity relative to GLP-1 / % GlucR activity relative to glucagon
How it was run: (§1)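 Potency values represent EC50 from 4-parameter logistic curves of HTRF % Delta F signal. Receptor-expressing CHO cells (hGCGR 2×10^5 cells/mL, hGLP-1R 1×10^5 cells/mL) were exposed for 30 min at room temperature before two-step cAMP detection.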

[2] = target: human glucagon receptor (hGCGR) (Homo sapiens, UniProt P47871); test: cAMP production (HTRF) in CHO cells expressing hGCGR; type: cell-based; design: expressed in transfected cells; conditions: cAMP in CHO hGCGR cells, geometric mean, read-out: hGluc-R EC50
How it was run: as §1

[3] = Mouse acute food intake study; type: in vivo; conditions: male C57Bl/6 mice, s.c., dose 10 nmol/kg, cumulative food intake at 24 hr vs vehicle
Experimental: Male C57Bl/6 mice obtained from Jackson Laboratories or Charles River at 8-9 weeks of age and were housed one per cage in BioDaq (Research Diets) cages. Mice were placed on Alpha Dri bedding, standard chow diet (Envigo, 2018) and given water pouches. Mice were allowed to acclimate for 1-2 weeks. Body weight was measured to ensure appropriate acclimation. After acclimation, mice were sham dosed a minimum of 2 times prior to initiation of food intake study. On study day, mice were placed in clean cage bottoms, weighed, and fasted for 6-8 hours. Mice were sorted into groups based on average 24-hour food intake data and body weight. 1-2 hours prior to lights out, mice were dosed subcutaneously with one vehicle or test peptide dissolved in an appropriate vehicle at 5 mL/kg. Mice were left undisturbed and allowed access to food and water for 48 hours. Automated food intake was monitored in the BioDaq system was monitored during this time. Discrete food intake data was exported into MS Excel from which cumulative food intake data was generated and analyzed.

[4] = Table 6, peptides modified at position 17
[5] = Table 7, peptides modified at position 20

human GLP-1 receptor (hGLP-1R), sequence (P43220 24-463): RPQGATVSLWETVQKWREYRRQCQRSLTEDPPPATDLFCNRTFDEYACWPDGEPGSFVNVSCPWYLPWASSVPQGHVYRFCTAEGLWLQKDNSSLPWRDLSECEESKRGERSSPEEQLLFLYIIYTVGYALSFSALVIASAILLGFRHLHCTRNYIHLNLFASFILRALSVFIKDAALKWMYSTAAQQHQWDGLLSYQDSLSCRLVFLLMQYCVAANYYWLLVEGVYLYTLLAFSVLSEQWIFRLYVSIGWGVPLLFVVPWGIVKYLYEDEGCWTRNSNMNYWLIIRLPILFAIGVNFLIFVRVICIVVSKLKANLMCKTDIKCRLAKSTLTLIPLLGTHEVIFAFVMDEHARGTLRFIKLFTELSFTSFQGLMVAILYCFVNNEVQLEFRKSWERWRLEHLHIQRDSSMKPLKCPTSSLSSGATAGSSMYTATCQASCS
human glucagon receptor (hGCGR), sequence (P47871 26-477): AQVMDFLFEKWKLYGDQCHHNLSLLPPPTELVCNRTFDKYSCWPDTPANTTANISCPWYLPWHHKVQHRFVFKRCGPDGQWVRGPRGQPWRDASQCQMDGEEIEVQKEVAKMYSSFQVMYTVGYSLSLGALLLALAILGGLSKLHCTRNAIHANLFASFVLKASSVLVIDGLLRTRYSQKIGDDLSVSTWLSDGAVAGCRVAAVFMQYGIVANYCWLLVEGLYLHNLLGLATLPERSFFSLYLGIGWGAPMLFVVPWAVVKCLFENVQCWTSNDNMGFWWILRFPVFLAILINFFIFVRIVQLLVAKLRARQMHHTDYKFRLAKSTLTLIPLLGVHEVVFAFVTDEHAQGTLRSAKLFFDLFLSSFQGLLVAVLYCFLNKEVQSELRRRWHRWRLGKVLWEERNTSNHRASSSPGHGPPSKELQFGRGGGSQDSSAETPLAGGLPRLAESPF

Row | SMILES | EC50 [1, 4] [nM] | % Relative Potency Ratio ([1]; Table 6) | EC50 [2, 4] [nM] | 24 hr % Vehicle Food Intake [3] [%] | EC50 [1, 5] [nM] | EC50 [2, 5] [nM] | % Relative Potency Ratio ([1]; Table 7)
1 | CCCCCCCCCCCCCCCCCC(=O)N[C@@H](CCC(=O)N[C@@H](CCC(=O)NCCOCCOCCC(=O)NCCOCCOCCC(=O)NCCCC[C@H](NC(=O)[C@H](CO)NC(=O)[C@H](CC(=O)O)NC(=O)[C@H](CC(C)C)NC(=O)[C@@H](NC(=O)[C@H](CCCCN)NC(=O)[C@H](CO)NC(=O)[C@@H](NC(=O)[C@H](CC(=O)O)NC(=O)[C@H](CO)NC(=O)[C@@H](NC(=O)[C@](C)(Cc1ccccc1)NC(=O)[C@H](CO)NC(=O)CNC(=O)[C@H](CCC(N)=O)NC(=O)C(C)(C)NC(=O)[C@@H](N)Cc1c[nH]cn1)[C@@H](C)O)C(C)C)C(c1ccccc1)c1ccccc1)C(=O)N[C@@H](C)C(=O)N[C@@H](C)C(=O)N[C@@H](CCC(N)=O)C(=O)N[C@@H](CC(=O)O)C(=O)N[C@@](C)(Cc1ccccc1)C(=O)N[C@H](C(=O)N[C@@H](CCC(=O)O)C(=O)NC(C)(C)C(=O)N[C@@H](CC(C)C)C(=O)N[C@@H](C)C(=O)N[C@@H](CC(N)=O)C(=O)N[C@H](C(N)=O)[C@@H](C)O)C(C)C)C(=O)O)C(=O)O [Peptide 45] (H-H[Aib]QGS[αMeF]TSDVSK[Dip]LDSK([PEG2-PEG2-γGlu-γGlu-Stearoyl])AAQD[αMeF]VE[Aib]LANT-NH2; N-terminus assumed) | 0.00203 | 14.6 | 0.0149 | 76.2 |  |  | 
2 | CCCCCCCCCCCCCCCCCC(=O)N[C@@H](CCC(=O)N[C@@H](CCC(=O)NCCOCCOCCC(=O)NCCOCCOCCC(=O)NCCCC[C@H](NC(=O)[C@H](CO)NC(=O)[C@H](CC(=O)O)NC(=O)[C@H](CC(C)C)NC(=O)[C@@H](NC(=O)[C@H](CCCCN)NC(=O)[C@H](CO)NC(=O)[C@@H](NC(=O)[C@H](CC(=O)O)NC(=O)[C@H](CO)NC(=O)[C@@H](NC(=O)[C@](C)(Cc1ccccc1)NC(=O)[C@H](CO)NC(=O)CNC(=O)[C@H](CCC(N)=O)NC(=O)[C@H](CO)NC(=O)[C@@H](N)Cc1c[nH]cn1)[C@@H](C)O)C(C)C)C(c1ccccc1)c1ccccc1)C(=O)N[C@@H](C)C(=O)N[C@@H](C)C(=O)N[C@@H](CCC(N)=O)C(=O)N[C@@H](CC(=O)O)C(=O)N[C@@](C)(Cc1ccccc1)C(=O)N[C@H](C(=O)N[C@@H](CCC(=O)O)C(=O)NC(C)(C)C(=O)N[C@@H](CC(C)C)C(=O)N[C@@H](CCC(=O)O)C(=O)N[C@@H](C)C(=O)NCC(=O)NCC(N)=O)C(C)C)C(=O)O)C(=O)O [Peptide 46] (H-HSQGS[αMeF]TSDVSK[Dip]LDSK([PEG2-PEG2-γGlu-γGlu-Stearoyl])AAQD[αMeF]VE[Aib]LEAGG-NH2; N-terminus assumed) | 0.00339 | 3.4 | 0.00591 | 72.1 |  |  | 
3 | CCCCCCCCCCCCCCCC(=O)N[C@@H](CCC(=O)NCCOCCOCCOCCOCCC(=O)NCCCC[C@H](NC(=O)[C@@H](NC(=O)[C@H](CC(=O)O)NC(=O)[C@H](CC(C)C)NC(=O)[C@](C)(Cc1ccccc1)NC(=O)[C@H](CCCCN)NC(=O)[C@H](CO)NC(=O)[C@@H](NC(=O)[C@H](CC(=O)O)NC(=O)[C@H](CO)NC(=O)[C@@H](NC(=O)[C@H](Cc1ccccc1)NC(=O)[C@@H](NC(=O)CNC(=O)[C@H](CCC(N)=O)NC(=O)C(C)(C)NC(=O)[C@@H](N)Cc1c[nH]cn1)[C@@H](C)O)[C@@H](C)O)C(C)C)C(C)C)C(=O)N[C@@H](CCCNC(=N)N)C(=O)N[C@@H](C)C(=O)N[C@@H](CCC(N)=O)C(=O)N[C@@H](CC(=O)O)C(=O)N[C@@](C)(Cc1ccccc1)C(=O)N[C@H](C(=O)N[C@@H](CCC(=O)O)C(=O)NC(C)(C)C(=O)N[C@@H](CC(C)C)C(=O)N[C@@H](CCCC)C(=O)N[C@@H](CCC(=O)O)C(=O)N[C@H](C(N)=O)[C@@H](C)O)C(C)C)C(=O)O [Peptide 68] (H-H[Aib]QGTFTSDVSK[αMeF]LDVK([PEG4-γGlu-Palmitoyl])RAQD[αMeF]VE[Aib]L[Nle]ET-NH2; N-terminus assumed) | 0.0011 | 8.4 | 0.00467 | 74.2 |  |  | 
4 | CCCCCCCCCCCCCCCCCC(=O)N[C@@H](CCC(=O)N[C@@H](CCC(=O)NCCOCCOCCOCCOCCC(=O)NCCCC[C@H](NC(=O)[C@H](CO)NC(=O)[C@H](CC(=O)O)NC(=O)[C@H](CC(C)C)NC(=O)[C@](C)(Cc1ccccc1)NC(=O)[C@H](CCCCN)NC(=O)[C@H](CO)NC(=O)[C@@H](NC(=O)[C@H](CC(=O)O)NC(=O)[C@H](CO)NC(=O)[C@@H](NC(=O)[C@](C)(Cc1ccccc1)NC(=O)[C@H](CO)NC(=O)CNC(=O)[C@H](CCC(N)=O)NC(=O)C(C)(C)NC(=O)[C@@H](N)Cc1c[nH]cn1)[C@@H](C)O)C(C)C)C(=O)N[C@@H](C)C(=O)N[C@@H](C)C(=O)N[C@@H](CCC(N)=O)C(=O)N[C@@H](CC(=O)O)C(=O)N[C@@](C)(Cc1ccccc1)C(=O)N[C@H](C(=O)N[C@@H](CCC(=O)O)C(=O)NC(C)(C)C(=O)N[C@@H](CC(C)C)C(=O)N[C@@H](CCC(=O)O)C(=O)N[C@@H](C)C(=O)NCC(=O)NCC(N)=O)C(C)C)C(=O)O)C(=O)O [Peptide 71] (H-H[Aib]QGS[αMeF]TSDVSK[αMeF]LDSK([PEG4-γGlu-γGlu-Stearoyl])AAQD[αMeF]VE[Aib]LEAGG-NH2) | 0.00217 | 48.9 | 0.0537 | 80.6 |  |  | 
5 | CC(C)C[C@H](NC(=O)[C@H](Cc1c[nH]c2ccccc12)NC(=O)[C@H](CCCNC(=N)N)NC(=O)[C@@H](NC(=O)[C@H](Cc1ccccc1)NC(=O)[C@H](CC(=O)O)NC(=O)[C@H](CCCCNC(=O)COCCOCCNC(=O)COCCOCCNC(=O)CC[C@H](NC(=O)CCCCCCCCCCCCCCCCC(=O)O)C(=O)O)NC(=O)[C@H](C)NC(=O)[C@H](CCCNC(=N)N)NC(=O)[C@H](CCC(=O)O)NC(=O)[C@H](CO)NC(=O)[C@H](CC(=O)O)NC(=O)[C@H](CC(C)C)NC(=O)[C@](C)(Cc1ccccc1)NC(=O)[C@H](CCC(=O)O)NC(=O)[C@H](CO)NC(=O)[C@@H](NC(=O)[C@H](CC(=O)O)NC(=O)[C@H](CO)NC(=O)[C@@H](NC(=O)[C@H](Cc1ccccc1)NC(=O)[C@@H](NC(=O)CNC(=O)[C@H](CCC(N)=O)NC(=O)C(C)(C)NC(=O)[C@@H](N)Cc1c[nH]cn1)[C@@H](C)O)[C@@H](C)O)C(C)C)C(C)C)C(=O)N[C@@H](CCC(=O)O)C(=O)N[C@@H](C)C(=O)NCC(=O)NCC(=O)O [Peptide 524] (H-H[Aib]QGTFTSDVSE[αMeF]LDSERAK([AEEA-AEEA-γGlu-C18 diacid])DFVRWLEAGG-OH) |  |  |  |  | 0.366 | > 24.4 | 
6 | CC(C)C[C@H](NC(=O)[C@H](Cc1c[nH]c2ccccc12)NC(=O)[C@H](CCC(N)=O)NC(=O)[C@@H](NC(=O)[C@H](Cc1ccccc1)NC(=O)[C@H](CC(=O)O)NC(=O)[C@H](CCCCNC(=O)COCCOCCNC(=O)COCCOCCNC(=O)CC[C@H](NC(=O)CCCCCCCCCCCCCCCCC(=O)O)C(=O)O)NC(=O)[C@H](C)NC(=O)[C@H](CCCNC(=N)N)NC(=O)[C@H](CCC(=O)O)NC(=O)[C@H](CO)NC(=O)[C@H](CC(=O)O)NC(=O)[C@H](CC(C)C)NC(=O)[C@](C)(Cc1ccccc1)NC(=O)[C@H](CCCCN)NC(=O)[C@H](CO)NC(=O)[C@@H](NC(=O)[C@H](CC(=O)O)NC(=O)[C@H](CO)NC(=O)[C@@H](NC(=O)[C@H](Cc1ccccc1)NC(=O)[C@@H](NC(=O)CNC(=O)[C@H](CCC(N)=O)NC(=O)C(C)(C)NC(=O)[C@@H](N)Cc1c[nH]cn1)[C@@H](C)O)[C@@H](C)O)C(C)C)C(C)C)C(=O)N[C@@H](CCC(=O)O)C(=O)N[C@@H](C)C(=O)NC(C)(C)C(=O)NCC(=O)O [Peptide 525] |  |  |  |  | 0.177 | 2.45 | 27.4
7 | CC(C)C[C@H](NC(=O)[C@H](Cc1c[nH]c2ccccc12)NC(=O)[C@H](C)NC(=O)[C@@H](NC(=O)[C@H](Cc1ccccc1)NC(=O)[C@H](CC(=O)O)NC(=O)[C@H](CCCCNC(=O)COCCOCCNC(=O)COCCOCCNC(=O)CC[C@H](NC(=O)CCCCCCCCCCCCCCCCC(=O)O)C(=O)O)NC(=O)[C@H](C)NC(=O)[C@H](CCCNC(=N)N)NC(=O)[C@H](CCC(=O)O)NC(=O)[C@H](CO)NC(=O)[C@H](CC(=O)O)NC(=O)[C@H](CC(C)C)NC(=O)[C@](C)(Cc1ccccc1)NC(=O)[C@H](CCCCN)NC(=O)[C@H](CO)NC(=O)[C@@H](NC(=O)[C@H](CC(=O)O)NC(=O)[C@H](CO)NC(=O)[C@@H](NC(=O)[C@H](Cc1ccccc1)NC(=O)[C@@H](NC(=O)CNC(=O)[C@H](CCC(N)=O)NC(=O)C(C)(C)NC(=O)[C@@H](N)Cc1c[nH]cn1)[C@@H](C)O)[C@@H](C)O)C(C)C)C(C)C)C(=O)N[C@@H](CCC(=O)O)C(=O)N[C@@H](C)C(=O)NC(C)(C)C(=O)NCC(=O)O [Peptide 526] |  |  |  |  | 0.194 | 0.69 | 7.0
